Reference: PMC12470768, “Mentha rotundifolia, a Source of Amoebicidal Agents Against Naegleria fowleri” (International Journal of Molecular Sciences, 2025)

Assays:
[1] = test system: N. fowleri ATCC® 30215™ cyst stage; assay: In vitro cysticidal activity against N. fowleri cysts (alamarBlue), strain ATCC 30215; type: cell-based; settings: Naegleria fowleri, ATCC30215, mean ± SD
Description: (§1) Following the assays against trophozoites, the compounds were further evaluated for their activity against the cyst stage of N. fowleri (ATCC® 30808™ and ATCC® 30215™). To induce cyst formation, the trophozoites were centrifuged, resuspended in MYAS medium, and incubated under slight agitation at room temperature for 10 days. After this, mature cysts were harvested, pretreated with 0.5% SDS, and seeded in a 96-well microtiter plate at 2 × 10^5 cells/mL. The drugs were tested in serial dilutions, and after 24 h of incubation at 37 °C, the medium was replaced with fresh Bactocasitone medium. The colorimetric alamarBlue® assay was used to assess cyst viability, with 10 µL of reagent added to each well. The plates were incubated for an additional 72 h at 37 °C, and fluorescence was measured using the EnSpire® Multimode Plate Reader (PerkinElmer, Madrid, Spain). The results were compared to a negative control (untreated cysts) and a positive control (amphotericin B and miltefosine). The IC50 values were determined through nonlinear regression analysis.

[2] = test system: N. fowleri trophozoites; assay: Chromatin condensation (Hoechst 33342 / propidium iodide staining); type: cell-based, Naegleria fowleri; settings: IC90, 24 h; for chromatin condensation (Hoechst 33342 fluorescence): compound 7 on ATCC 30808, compound 10 on ATCC 30215, amphotericin B on both
Description: (§2) To evaluate the induction of PCD, N. fowleri strains ATCC® 30808™ and ATCC® 30215™ were treated with the IC90 concentration of the compounds 7 and 10 for 24 h at 37 °C. After incubation, specific fluorescent markers were used to assess various detectable metabolic events, following the manufacturers’ instructions for each assay. Amphotericin B was used as a positive control, and untreated amoebae served as a negative control. Fluorescence imaging was performed using EVOS M5000 Cell Imaging System (Life Technologies, Madrid, Spain) and confocal microscope Leica DMI 4000 B equipped with Leica Application Suite X software version 3.5.5.19976 and Leica HC PL APO 63x/1.40 OIL CS2 objective (Leica Microsystems, Wetzlar, Germany). The fluorescence obtained was expressed as mean ± standard deviation from at least three independent experiments.
To evaluate the chromatin condensation, cells were stained with Hoechst 33,342 (1 µM) and propidium iodide (PI) (1 µM) for 20 min in the dark. Hoechst 33,342 binds to condensed chromatin in apoptotic cells and emits blue fluorescence, while PI enters cells with compromised membranes, indicative of late apoptosis or necrosis, and binds to DNA, emitting red fluorescence. […] Untreated cells were included as negative controls to establish baseline fluorescence levels.

[3] = test system: N. fowleri ATCC® 30808™ cyst stage; assay: In vitro cysticidal activity against N. fowleri cysts (alamarBlue), strain ATCC 30808; type: cell-based, Naegleria fowleri; settings: for IC50: Naegleria fowleri, ATCC30808, mean ± SD
Description: as §1

[4] = test system: N. fowleri ATCC® 30808™ trophozoites; assay: In vitro amoebicidal activity against N. fowleri trophozoites (alamarBlue), strain ATCC 30808; type: cell-based, Naegleria fowleri; settings: for IC50 / N. fowleri ATCC 30808 IC50: mean ± SD; for N. fowleri ATCC 30808 SI (CC50/IC50): selectivity index vs murine macrophages J774
Description: (§3) The in vitro activity of the tested compounds against Naegleria fowleri trophozoites was evaluated using two clinical strains obtained from the American Type Culture Collection (ATCC® 30808™ and ATCC® 30215™). Trophozoites were cultured axenically at 37 °C in 2% (w/v) Bactocasitone medium (Thermo Fisher Scientific, Madrid, Spain), supplemented with 10% (v/v) fetal bovine serum (FBS), […] penicillin G sodium salt, and 0.5 mg/mL streptomycin sulfate (Sigma-Aldrich, Madrid, Spain). For cytotoxicity assessment, murine macrophages from the J774A.1 cell line (ATCC® TIB-67) were cultured in Dulbecco’s Modified Eagle’s Medium (DMEM) supplemented with 10% (v/v) FBS and 10 μg/mL gentamicin sulfate (Sigma-Aldrich, Madrid, Spain). The macrophages were maintained at 37 °C in a 5% CO2 atmosphere.
(§4) The trophocidal activity of the compounds was evaluated using the alamarBlue® colorimetric assay. N. fowleri trophozoites were seeded in duplicate in a 96-well microtiter plate at a concentration of 2 × 10^5 cells/mL and incubated for adhesion in Bactocasitone medium (2% v/w) (Thermo Fisher Scientific, Madrid, Spain), supplemented with 10% (v/v) fetal bovine serum (FBS), 0.3% penicillin G sodium salt, and 0.5 mg/mL streptomycin sulfate (Sigma-Aldrich, Madrid, Spain). Different concentrations of the evaluated compounds, prepared in fresh Bactocasitone medium, were added to the wells (50 µL per well). The negative control consisted of trophozoites incubated with the medium alone. After adding 10 µL of alamarBlue® reagent, the plates were incubated at 37 °C for 48 h with slight agitation. The data were analyzed using nonlinear regression with GraphPad Prism 9 software to determine the IC50 and IC90 values, which were then used for further studies on PCD [10].

[5] = test system: N. fowleri trophozoites; assay: Plasma membrane permeability (SYTOX Green); type: cell-based, Naegleria fowleri; settings: IC90, 24 h; compound 7 on ATCC 30808, compound 10 on ATCC 30215, amphotericin B on both
Description: as §2
After treatment, SYTOX™ Green nucleic acid stain (Life Technologies, Madrid, Spain) was added to each well at a final concentration of 1 μg/mL and incubated for 15 min in the dark. […] In contrast, viable cells with intact membranes exclude the dye and remain non-fluorescent. Untreated trophozoites were used as negative controls.

[6] = test system: N. fowleri ATCC® 30215™ trophozoites; assay: In vitro amoebicidal activity against N. fowleri trophozoites (alamarBlue), strain ATCC 30215; type: cell-based, Naegleria fowleri; settings: trophozoite stage; for IC50: Naegleria fowleri, ATCC30215, 48 h, mean ± SD; for N. fowleri ATCC 30215 SI (CC50/IC50): selectivity index vs murine macrophages J774
Description: as §3, §4

[7] = In vitro cytotoxicity on murine macrophages (alamarBlue); type: cell-based; settings: mouse, J774A.1 murine macrophage cell line (ATCC TIB-67), mean ± SD
Description: as §3
The cytotoxicity of the compounds was assessed against the murine macrophage cell line J774A.1 (ATCC® TIB-67™). Cells were maintained at 37 °C in a 5% CO2 atmosphere in DMEM medium. In the assay, different concentrations of the compounds were added to the cells in a 96-well microtiter plate, and after 24 h of incubation, 10 µL of alamarBlue® reagent was added. The fluorescence intensity was measured using the EnSpire® Multimode Plate Reader (PerkinElmer, Madrid, Spain). The cytotoxic concentration required to reduce cell viability by 50% (CC50) was determined through nonlinear regression analysis using GraphPad Prism 9 software. The results were compared with those obtained against trophozoites to calculate the selectivity index (S.I.) for N. fowleri.

[8] = test system: N. fowleri trophozoites; assay: Cytoskeletal integrity (phalloidin-TRITC actin staining); type: cell-based, Naegleria fowleri; settings: IC90; compound 7 on ATCC 30808, compound 10 on ATCC 30215
Description: as §2
Cytoskeletal disruption in treated amoebae was evaluated by staining with phalloidin conjugated to tetramethylrhodamine B isothiocyanate (phalloidin- TRITC), which binds specifically to filamentous actin, emitting red fluorescence. DAPI staining was used in parallel to visualize nuclear DNA, emitting blue fluorescence. […] Following washing with PBS, fluorescence images were captured with a 63x oil immersion objective.

[9] = test system: N. fowleri trophozoites; assay: Intracellular reactive oxygen species (CellROX Deep Red); type: cell-based, Naegleria fowleri; settings: IC90, 24 h; compound 7 on ATCC 30808 (p < 0.05), compound 10 on ATCC 30215 (p < 0.01)
Description: as §2
The oxidative stress induced by the generation of ROS in N. fowleri was evaluated using the CellROX® Deep Red reagent (Invitrogen, Thermo Fisher Scientific, Madrid, Spain). Following incubation, cells were stained with the dye at a final concentration of 5 μM and then incubated for an additional 30 min. The reagent enters cells in response to elevated ROS levels, emitting red fluorescence at approximately 644/665 nm. Increased fluorescence intensity indicated higher levels of ROS accumulation, reflecting elevated oxidative stress in the treated cells.

[10] = test system: N. fowleri trophozoites; assay: Autophagic vacuole formation (monodansylcadaverine); type: cell-based, Naegleria fowleri; settings: IC90, 24 h
Description: as §2
Autophagy is a vital cellular process involved in the degradation and recycling of intracellular components, often activated in response to drug exposure. To evaluate autophagic activity, trophozoites were stained with monodansylcadaverine (MDC) (Sigma-Aldrich, St. Louis, MO, USA) during 30 min in the dark. […] The dye emits a characteristic cyan-blue fluorescence, allowing the detection and qualitative analysis of autophagic vacuoles in treated cells.

[11] = test system: N. fowleri trophozoites; assay: Intracellular ATP levels (CellTiter-Glo); type: cell-based, Naegleria fowleri; settings: treated with IC90, 24 h; negative control set as 100% ATP
Description: as §2
Adenosine triphosphate (ATP) production was quantified using the CellTiter-Glo® luminescent cell viability assay (Promega, Madrid, Spain). Amoebae were treated with the compounds, and an equal volume of reagent was added per well. Following cell lysis, the emitted luminescence, which is directly proportional to ATP content, was measured using the EnSpire® Multimode Plate Reader (PerkinElmer, Madrid, Spain). […]

[12] = test system: N. fowleri trophozoites; assay: Mitochondrial membrane potential (JC-1); type: cell-based, Naegleria fowleri; settings: IC90, 24 h; compound 7 on ATCC 30808, compound 10 on ATCC 30215
Description: as §2
Mitochondrial membrane potential (ΔΨm) was assessed using the JC-1 dye (1,1′,3,3′-tetraethyl-5,5′,6,6′-tetrachloroimidacarbocyanine iodide; Cayman Chemical, Madrid); following treatment, cells were harvested by centrifugation at 2500 rpm for 10 min and resuspended in JC-1 assay buffer. […] In cells with depolarized mitochondria, JC-1 remains in its monomeric form, emitting green fluorescence (emission at ~535 nm), indicating mitochondrial damage and a loss of ΔΨm.

[13] = Naegleria fowleri, ATCC30808, 48 h, trophozoite stage, 48 h
[14] = Naegleria fowleri, ATCC30808, trophozoites, extracts, fractions, subfractions, isolated compound and reference drugs

Row | SMILES | IC50 [1] [µM] | chromatin condensation (Hoechst 33342 fluorescence) [2] | IC50 [3] [µM] | IC50 [4, 13] [µM] | IC50 [4, 14] [µg/mL] | N. fowleri ATCC 30808 SI (CC50/IC50) ([4]; trophozoite stage) | N. fowleri ATCC 30808 IC50 ([4]; trophozoites, extracts, fractions, subfractions, isolated compound and reference drugs, listed as A) [µg/mL] | plasma membrane integrity (SYTOX Green fluorescence) [5] | IC50 [6] [µM] | N. fowleri ATCC 30215 SI (CC50/IC50) [6] | CC50 at 24 h [7] [µM] | N. fowleri ATCC 30808 IC50 ([4]; trophozoites, extracts, fractions, subfractions, isolated compound and reference drugs, listed as UA (1)) [µg/mL] | actin cytoskeleton (phalloidin-TRITC) [8] | intracellular ROS accumulation (CellROX Deep Red) [9] | propidium iodide (red) fluorescence ([2]; compound 7 on ATCC 30808) | N. fowleri ATCC 30808 SI (CC50/IC50), cyst stage ([3]; selectivity index vs murine macrophages J774) | IC90 ([4]; Naegleria fowleri, ATCC30808, trophozoites, compound 7 used on ATCC 30808 (Figure 8 legend)) [µM] | autophagic vesicles (MDC staining) [10] | inhibition of ATP levels compared to the negative control [11] [%] | mitochondrial membrane potential (JC-1) [12]
1 | C[C@@H]1[C@H](O)[C@@H](C)/C=C/C=C/C=C/C=C/C=C/C=C/C=C/[C@H](O[C@@H]2O[C@H](C)[C@@H](O)[C@H](N)[C@@H]2O)C[C@@H]2O[C@](O)(C[C@@H](O)C[C@@H](O)[C@H](O)CC[C@@H](O)C[C@@H](O)CC(=O)O[C@H]1C)C[C@H](O)[C@H]2C(=O)O [Amphotericin B, reference compound] | 0.62 ± 0.04 | clear chromatin condensation | 0.53 ± 0.03 | 0.12 ± 0.03 | 0.18 | >1650.89 | 0.162 ± 0.002 | bright green fluorescence | 0.16 ± 0.01 | >1250 | > 200 | – | – | – | – | – | – | – | – | –
2 | C[C@H]1[C@H](C)CC[C@]2(C(=O)O)CC[C@]3(C)C(=CC[C@@H]4[C@@]5(C)CC[C@H](O)C(C)(C)[C@@H]5CC[C@]43C)[C@H]12 [Compound 1, ursolic acid] | – | – | – | 142 ± 8.17 | 65.9 | – | – | – | 82.5 ± 8.43 | 0.43 | 35.9 ± 9.28 | 65.91 ± 3.73 | – | – | – | – | – | – | – | –
3 | COC(=O)[C@]12CC[C@@H](C)[C@H](C)[C@H]1C1=CC[C@@H]3[C@@]4(C)CC[C@H](O)C(C)(C)[C@@H]4CC[C@@]3(C)[C@]1(C)CC2 [Compound 2, methyl ursolate] | – | – | – | 88.7 ± 3.02 | – | 1.12 | – | – | 84.5 ± 6.31 | – | 49.6 ± 5.65 | – | – | – | – | – | – | – | – | –
4 | COC(=O)[C@]12CC[C@@H](C)[C@H](C)C1C1=CCC3[C@@]4(C)CC[C@H](OC(=O)CCC(=O)O)C(C)(C)C4CC[C@@]3(C)[C@]1(C)CC2 (stereo partly drawn) [Compound 7, 3-O-(Hemisuccinyl)-methyl ursolate] | 28 ± 1.59 | clear chromatin condensation | 36.6 ± 1.49 | 28.7 ± 1.8 | – | >6.11 | – | significant membrane disruption | 29.7 ± 1.59 | >5.90 | > 175 | – | reduced actin signal intensity | significantly increased ROS | strong red fluorescence | 4.78 | 39.5 | autophagosome formation | 89.5 | marked decrease in mitochondrial membrane potential
5 | COC(=O)[C@]12CC[C@@H](C)[C@H](C)C1C1=CCC3[C@@]4(C)CC[C@H](OC(=O)CCCC(=O)O)C(C)(C)C4CC[C@@]3(C)[C@]1(C)CC2 (stereo partly drawn) [Compound 8, 3-O-(Hemiglutaryl)-methyl ursolate] | – | – | – | 66.6 ± 9.25 | – | 1.24 | – | – | 38.7 ± 2.15 | 2.20 | 85 ± 5 | – | – | – | – | – | – | – | – | –
6 | CCCCCCCCCCCCCCCCOP(=O)([O-])OCC[N+](C)(C)C [Miltefosine, reference compound] | 37.8 ± 5.6 | – | 21.5 ± 2.62 | 38.7 ± 4.23 | 12.7 ± 1.49 | 3.30 | – | – | 81.6 ± 7.23 | 1.57 | 128 ± 8.85 | – | – | – | – | – | – | – | – | –
